Experimental data taken from PubChem BioAssay AID2060332 (Molecular Pharmacology Branch, DTP, NCI, 2025).
pIC50: −log10 of the molar value. Where “and” joins values, the source holds several entries; their conditions need not be identical. Equal values may be shown once. Blank lines part the entries; values can stand above or below the compound they belong to.

Test system: LG0567-F671-PDC multi-cell spheroid viability
Test: Anticancer human tumor LG0567-F671-PDC patient-derived lung adenocarcinoma cell line growth inhibition [IpAb]
Details: for viability, T/C: stronger effect = lower value
In short: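 Spheroids of 60% malignant cells, 25% HUVEC and 15% MSC were exposed to targeted agents combined with ipatasertib or abemaciclib. Doses started at or near clinical Cmax (10 microM when unknown) and fell in half-log steps.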
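Further: viability read after 7 days of drug exposure.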
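Wherever viability, T/C is given: 100% = DMSO vehicle control luminescence.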

Compound: Cn1ncc(Cl)c1-c1cc(C(=O)NC(CN)Cc2cccc(F)c2)sc1Cl (configuration not stated) + CC(C)NCC(C(=O)N1CCN(c2ncnc3c2C(C)CC3O)CC1)c1ccc(Cl)cc1
pIC50 (curve of first compound, second compound 0.1 µM): 5.49
pIC50 (curve of first compound, second compound 0.316 µM): 5.47
pIC50 (curve of first compound, second compound 1 µM): 5.72
pIC50 (curve of first compound, second compound 3.16 µM): 5.52
pIC50 (curve of first compound, second compound 10 µM): 5.62
viability, T/C (second compound 0.1 µM, first compound 0.0316 µM): 68.7%
viability, T/C (second compound 0.1 µM, first compound 0.1 µM): 68.3%
viability, T/C (second compound 0.1 µM, first compound 0.316 µM): 74.8%
viability, T/C (second compound 0.1 µM, first compound 1 µM): 81.1%
viability, T/C (second compound 0.1 µM, first compound 3.16 µM): 50.8%
viability, T/C (second compound 0.1 µM, first compound 10 µM): 0.2%
viability, T/C (second compound 0.316 µM, first compound 0.0316 µM): 79.6%
viability, T/C (second compound 0.316 µM, first compound 0.1 µM): 81.4%
viability, T/C (second compound 0.316 µM, first compound 0.316 µM): 81.8%
viability, T/C (second compound 0.316 µM, first compound 1 µM): 61.7%
viability, T/C (second compound 0.316 µM, first compound 3.16 µM): 58.2%
viability, T/C (second compound 0.316 µM, first compound 10 µM): 0.18%
viability, T/C (second compound 1 µM, first compound 0.0316 µM): 71.1%
viability, T/C (second compound 1 µM, first compound 0.1 µM): 89.5%
viability, T/C (second compound 1 µM, first compound 0.316 µM): 71.3%
viability, T/C (second compound 1 µM, first compound 1 µM): 67.1%
viability, T/C (second compound 1 µM, first compound 3.16 µM): 37.1%
viability, T/C (second compound 1 µM, first compound 10 µM): 0.16%
viability, T/C (second compound 3.16 µM, first compound 0.0316 µM): 70%
viability, T/C (second compound 3.16 µM, first compound 0.1 µM): 82.5%
viability, T/C (second compound 3.16 µM, first compound 0.316 µM): 76.3%
viability, T/C (second compound 3.16 µM, first compound 1 µM): 51.5%
viability, T/C (second compound 3.16 µM, first compound 3.16 µM): 57%
viability, T/C (second compound 3.16 µM, first compound 10 µM): 0.39%
viability, T/C (second compound 10 µM, first compound 0.0316 µM): 77.5%
viability, T/C (second compound 10 µM, first compound 0.1 µM): 76.9%
viability, T/C (second compound 10 µM, first compound 0.316 µM): 83.6%
viability, T/C (second compound 10 µM, first compound 1 µM): 60.2%
viability, T/C (second compound 10 µM, first compound 3.16 µM): 46.6%
viability, T/C (second compound 10 µM, first compound 10 µM): 0.19%

pIC50 (curve of compound): < 7.00 and 7.31
Compound: Cn1ncnc1[C@H]1c2n[nH]c(=O)c3cc(F)cc(c23)N[C@@H]1c1ccc(F)cc1
viability, T/C (compound 0.000316 µM): 113% and 103%
viability, T/C (compound 0.001 µM): 89.9% and 84.2%
viability, T/C (compound 0.00316 µM): 96.3% and 81.5%
viability, T/C (compound 0.01 µM): 69.8% and 66%
viability, T/C (compound 0.0316 µM): 42.7% and 73.8%
viability, T/C (compound 0.1 µM): 65.2% and 30.4%
